Patent publication US8557812B2, “Small molecule inhibitors of anti-apoptotic BCL-2 family members and the uses thereof” (The Regents of the University of Michigan, priority 2004, dated 2013)

What was measured:
human Bcl-xL = human Bcl-xL (Homo sapiens, UniProt Q07817); assay: Fluorescence polarization in vitro Bcl-xL binding assay; conditions: displacement of Flu-Bak peptide
Source text: For determination of the binding affinity to Bcl-xL protein a human Bcl-xL recombinant His-tagged protein without the C-terminus hydrophobic tail and the Bak-16mer BH3 peptide labeled with 6-carboxyfluorescein succinimidyl ester (FAM) were used.

Bcl-2 = Bcl-2 (Homo sapiens, UniProt P10415); assay: Fluorescence polarization in vitro Bcl-2 binding assay
Sequence of Bcl-2 (P10415 92-205 limits assumed): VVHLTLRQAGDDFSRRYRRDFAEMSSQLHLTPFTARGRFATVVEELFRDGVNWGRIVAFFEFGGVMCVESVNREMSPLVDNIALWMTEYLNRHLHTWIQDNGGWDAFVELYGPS
Method: Bcl-2 used in this assay is a recombinant His-fused soluble protein. […] Inc., Research Triangle Park, N.C.). […] The unlabeled Bid peptide is used as the positive control. The Ki values were calculated using our developed equation for FP assay (Nikolovska-Coleska et al., Anal. Biochem., 2004, in press). The program for calculating a Ki value is available free of charge via the Internet at http://sw16.im.med.umich.edu/software/calc_ki/.

Sequence of human Bcl-xL (Q07817 1-209 limits assumed): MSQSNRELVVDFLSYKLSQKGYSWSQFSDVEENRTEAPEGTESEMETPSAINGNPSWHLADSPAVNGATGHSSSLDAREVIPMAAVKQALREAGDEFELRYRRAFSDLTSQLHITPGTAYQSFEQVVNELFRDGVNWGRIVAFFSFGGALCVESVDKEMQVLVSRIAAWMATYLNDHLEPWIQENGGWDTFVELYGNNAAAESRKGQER

Structure (SMILES) | IC50 (human Bcl-xL) | IC50 (Bcl-2)
CC(C)c1cc(Cc2ccc(Oc3ccccc3)cc2)c(O)c(O)c1O [TM-159] | > 1 µM | 
Oc1c(CCc2ccccc2)cc(Cc2ccc(Oc3ccccc3)cc2)c(O)c1O [TM-162] | > 1 µM | 
CN(CCCc1ccccc1)S(=O)(=O)c1cc(C(=O)N2CCc3ccc(S(=O)(=O)NCCc4ccccc4)cc3C2)c(O)c(O)c1O [TM-1206] |  | ≤ 1 µM
CC(C)(C)c1ccc(-c2cc(Cc3ccccc3)c(O)c(O)c2O)cc1 [TW-3, 5-Benzyl-4′-tert-butyl-biphenyl-2,3,4-triol] |  | > 1 µM
CC(C)c1cc(-c2ccc(C(C)(C)C)cc2)c(O)c(O)c1O [TW-4, 4′-tert-Butyl-5-isopropyl-biphenyl-2,3,4-triol] |  | > 1 µM
CCCCCCCCCCc1ccc(-c2cc(C(C)C)c(O)c(O)c2O)cc1 [TW-5, 4′-Decyl-5-isopropyl-biphenyl-2,3,4-triol] |  | > 1 µM
CCCCCCCCCCCc1ccc(-c2cc(CCc3ccc(C(C)(C)C)cc3)c(O)c(O)c2O)cc1 [TW-7, 5-[2-(4-tert-Butyl-phenyl)-ethyl]-4′-unedcyl-biphenyl-2,3,4-triol] |  | > 1 µM
CCCCCCCCCCCc1ccc(-c2cc(Cc3ccccc3C(C)C)c(O)c(O)c2O)cc1 [TW-14, 5-(2-Isopropyl-benzyl)-4′-undecyl-biphenyl-2,3,4-triol] |  | > 1 µM
CC(C)c1cccc(NC(=O)c2cc(CCc3ccccc3)c(O)c(O)c2O)c1 [TW-24, N-(3-isopropyl-phenyl)-2,3,4-trihydroxy-5-phenethyl-benzamide] |  | > 1 µM
Cc1ccccc1NC(=O)c1cc(CCc2ccccc2)c(O)c(O)c1O [TW-28] |  | > 1 µM
CC(C)(C)c1ccc(CCc2cc(C(=O)Nc3ccc(S(=O)(=O)c4ccccc4C(C)(C)C)cc3)c(O)c(O)c2O)cc1 [TW-38, N-[(2-tert-Butyl-benzenesulfonyl)-phenyl]-2,3,4-trihydroxy-5-(4-tert-butyl-phenethyl)-benzamide] |  | ≤ 1 µM
CC(C)(C)c1ccc(Cc2cc(C(=O)Nc3cc(S(=O)(=O)c4ccc(Cl)cc4)ccc3Cl)c(O)c(O)c2O)cc1 [TW-39, N-[2-Chloro-5-(4-chloro-benzenesulfonyl)-phenyl]-2,3,4-trihydroxy-5-(4-tert-butyl-benzyl)-benzamide] |  | > 1 µM
CCc1cc(C(=O)Nc2cc(S(=O)(=O)c3ccc(Cl)cc3)ccc2Cl)c(O)c(O)c1O [TW-45, N-[2-Chloro-5-(4-chloro-benzenesulfonyl)-phenyl]-2,3,4-trihydroxy-5-ethyl-benzamide] |  | ≤ 1 µM
CC(C)c1ccccc1Cc1cc(C(=O)Nc2ccccc2)c(O)c(O)c1O [TW-52, N-Phenyl-2,3,4-trihydroxy-5-(2-iso-propyl-benzyl)-benzamide] |  | > 1 µM
CC(C)c1ccccc1Cc1cc(C(=O)Nc2ccccc2Cl)c(O)c(O)c1O [TW-53, N-(2-Chloro-phenyl)-2,3,4-trihydroxy-5-(2-iso-propyl-benzyl)-benzamide] |  | > 1 µM
CNC(=O)c1cc(Cc2ccccc2C(C)C)c(O)c(O)c1O [TW-55, N-Methyl-2,3,4-trihydroxy-5-(2-isopropyl-benzyl)-benzamide] |  | > 1 µM
CC(C)(C)c1ccccc1S(=O)(=O)c1ccc(NC(=O)c2cc(S(=O)(=O)NCCCCc3ccccc3)cc(O)c2O)cc1 [TW-160] |  | > 1 µM
CC(C)(C)c1ccccc1S(=O)(=O)c1ccc(NC(=O)c2cc(S(=O)(=O)NCCc3ccccc3)cc(O)c2O)cc1 [TW-161] |  | > 1 µM
O=C(Nc1ccccc1)c1cc(S(=O)(=O)Nc2ccccc2)cc(O)c1O [TW-162] |  | > 1 µM
O=C(Nc1ccc(S(=O)(=O)N2CCOCC2)cc1)c1cc(S(=O)(=O)N2CCc3ccccc3C2)cc(O)c1O [TW-164] |  | ≤ 1 µM
COc1ccc(S(=O)(=O)Nc2ccccc2C(C)C)cc1NC(=O)c1cc(S(=O)(=O)N2CCc3ccccc3C2)cc(O)c1O [TW-165] |  | ≤ 1 µM
O=C(NCCc1ccccc1)c1ccc(C2=Cc3c(c(O)c(O)c(O)c3-c3ccc(-c4ccccc4)cc3)C2=O)cc1 [TW-166] |  | ≤ 1 µM
O=C1C(c2ccc(C(=O)N3CCC(Cc4ccccc4)CC3)cc2)=Cc2c1c(O)c(O)c(O)c2-c1ccc(-c2ccccc2)cc1 [TW-172] |  | ≤ 1 µM

Next, values leading:

IC50 (human Bcl-xL) | IC50 (Bcl-2) | Structure (SMILES)
> 1 µM |  | Oc1ccc(Cc2ccc(Oc3ccccc3)cc2)c(O)c1O [TM-157]
> 1 µM |  | Oc1c(CCCc2ccccc2)cc(Cc2ccc(Oc3ccccc3)cc2)c(O)c1O [TM-163]
 | > 1 µM | Oc1c(Cc2ccccc2)cc(-c2ccc(CCCCCc3ccccc3)cc2)c(O)c1O [TW-1, 5-Benzyl-4′-(5-phenyl-pentyl)-biphenyl-2,3,4-triol]
 | > 1 µM | CCCCCCCCCCc1ccc(-c2cc(Cc3ccccc3)c(O)c(O)c2O)cc1 [TW-2, 5-Benzyl-4′-decyl-biphenyl-2,3,4-triol]
 | > 1 µM | CCCCCCCCCCCc1ccc(-c2cc(CCCc3ccccc3)c(O)c(O)c2O)cc1 [TW-6, 5-(3-Phenyl-propyl)-4′-undecyl-biphenyl-2,3,4-triol]
 | > 1 µM | CCCCCCCCCCCc1ccc(-c2cc(Cc3ccc(C(C)(C)C)cc3)c(O)c(O)c2O)cc1 [TW-8, 5-(4-Tertbutyl-benzyl)-4′-undecyl-biphenyl-2,3,4-triol]
 | > 1 µM | CCCCCCCCCCCc1ccc(-c2cc(Cc3ccc(C(C)C)cc3)c(O)c(O)c2O)cc1 [TW-9, 5-(4-Isopropyl-benzyl)-4′-undecyl-biphenyl-2,3,4-triol]
 | > 1 µM | Oc1c(Cc2ccccc2)cc(-c2ccc(CCCc3ccccc3)cc2)c(O)c1O [TW-11, 5-Benzyl-4′-(3-phenyl-propyl)-biphenyl-2,3,4-triol]
 | > 1 µM | Oc1c(Cc2ccccc2)cc(-c2ccc(Cc3ccccc3)cc2)c(O)c1O [TW-12, 5,4′-Dibenzyl-biphenyl-2,3,4-triol]
 | > 1 µM | O=C(Nc1cc(S(=O)(=O)c2ccc(Cl)cc2)ccc1Cl)c1cc(Cc2ccccc2)c(O)c(O)c1O [TW-17]
 | > 1 µM | O=C(Nc1ccc(Oc2ccccc2)cc1)c1cc(CCc2ccccc2)c(O)c(O)c1O [TW-20, N-(4-phenyloxy-phenyl)-2,3,4-trihydroxy-5-phenethyl-benzamide]
 | > 1 µM | O=C(Nc1cccc(S(=O)(=O)c2ccccc2)c1)c1cc(CCc2ccccc2)c(O)c(O)c1O [TW-21, N-(3-Benzenesulfonyl-phenyl)-2,3,4-trihydroxy-5-phenethyl-benzamide]
 | > 1 µM | CC(C)(C)c1ccc(CCc2cc(C(=O)Nc3cccc(S(=O)(=O)c4ccccc4)c3)c(O)c(O)c2O)cc1 [TW-22, N-(3-Benzenesulfonyl-phenyl)-5-[2-(4-tert-butyl-phenyl)-ethyl]-2,3,4-trihydroxy-benzamide]
 | > 1 µM | CC(C)(C)c1ccc(CNC(=O)c2cc(CCc3ccccc3)c(O)c(O)c2O)cc1 [TW-25, N-(4-tert-Butyl-benzyl)-2,3,4-trihydroxy-5-phenethyl-benzamide]
 | > 1 µM | O=C(Nc1ccc(Cl)c(Cl)c1)c1cc(CCc2ccccc2)c(O)c(O)c1O [TW-27]
 | > 1 µM | O=C(Nc1cc(S(=O)(=O)c2ccc(Cl)cc2)ccc1Cl)c1cc(CCc2ccccc2)cc(O)c1O [TW-34, N-[2-Chloro-5-(4-chloro-benzenesulfonyl)-phenyl]-2,3-dihydroxyl-phenethyl-benzamide]
 | > 1 µM | CC(C)c1ccccc1Cc1cc(C(=O)Nc2cc(S(=O)(=O)c3ccc(Cl)cc3)ccc2Cl)c(O)c(O)c1O [TW-35, N-[2-Chloro-5-(4-chloro-benzenesulfonyl)-phenyl]-2,3,4-trihydroxy-5-(2-isopropyl-benzyl)-benzamide]
 | > 1 µM | CC(C)(C)c1ccc(Cc2cc(C(=O)Nc3ccc(S(=O)(=O)c4ccccc4C(C)(C)C)cc3)c(O)c(O)c2O)cc1 [TW-41, N-[4-(2-tert-Butyl-benzenesulfonyl)-phenyl]-2,3,4-trihydroxy-5-(4-tert-butyl-benzyl)-benzamide]
 | > 1 µM | CC(C)CCCc1ccccc1Cc1cc(C(=O)Nc2ccc(S(=O)(=O)c3ccccc3C(C)(C)C)cc2)c(O)c(O)c1O [TW-42, N-[4-(2-tert-Butyl-benzenesulfonyl)-phenyl]-2,3,4-trihydroxy-5-(2-iso-hexyl-benzyl)-benzamide]
 | ≤ 1 µM | O=C(Nc1cc(S(=O)(=O)c2ccc(Cl)cc2)ccc1Cl)c1ccc(O)c(O)c1O [TW-46, N-[2-Chloro-5-(4-chloro-benzenesulfonyl)-phenyl]-2,3,4-trihydroxy-benzamide]
 | ≤ 1 µM | CC(C)CCCc1cc(C(=O)Nc2cc(S(=O)(=O)c3ccc(Cl)cc3)ccc2Cl)c(O)c(O)c1O [TW-47, N-[2-Chloro-5-(4-chloro-benzenesulfonyl)-phenyl]-2,3,4-trihydroxy-5-iso-hexyl-benzamide]
 | > 1 µM | O=C(Nc1ccc(S(=O)(=O)c2ccccc2)cc1)c1cc(Cc2ccccc2)c(O)c(O)c1O [TW-56, N-(Benzenesulfonyl-phenyl)-2,3,4-trihydroxy-5-benzyl-benzamide]
 | ≤ 1 µM | CC(C)(C)c1ccccc1S(=O)(=O)c1ccc(NC(=O)c2cc(S(=O)(=O)NCCCc3ccccc3)cc(O)c2O)cc1 [TW-159]
 | > 1 µM | O=C(Nc1ccc(S(=O)(=O)N2CCN(c3ccccc3)CC2)cc1)c1cc(S(=O)(=O)N2CCc3ccccc3C2)cc(O)c1O [TW-163]
 | > 1 µM | CC(C)(C)c1ccc(CCc2cc(O)c(O)c(C(=O)Nc3ccc(S(=O)(=O)N4CCN(c5ccccc5)CC4)cc3)c2)cc1 [TW-167]
 | ≤ 1 µM | CC(C)(C)c1ccc(CCc2cc(O)c(O)c(C(=O)Nc3ccc(S(=O)(=O)N4CCN(c5ncccn5)CC4)cc3)c2)cc1 [TW-169]
 | > 1 µM | CC(C)(C)c1ccc(CCc2cc(O)c(O)c(C(=O)Nc3ccc(S(=O)(=O)N4CCC(Cc5ccccc5)CC4)cc3)c2)cc1 [TW-170]
 | > 1 µM | O=C(Nc1ccc(S(=O)(=O)N2CCC(Nc3ccccc3-c3ccccc3)CC2)cc1)c1cc(S(=O)(=O)N2CCc3ccccc3C2)cc(O)c1O [TW-173]
 | > 1 µM | CC(C)(C)c1ccccc1NC1CCN(S(=O)(=O)c2ccc(NC(=O)c3cc(S(=O)(=O)N4CCc5ccccc5C4)cc(O)c3O)cc2)CC1 [TW-174]
